Test results from patent US5057513A, “Spiro-thiazepine derivatives useful as PAF antagonists” (Fujisawa Pharmaceutical Co., Ltd., priority 1989, dated 1991).
In brackets after ≈: the same amount, converted by molar mass. Where two headings read alike, the source gives them in different places.

Tests used:
[1] = tested on: PAF-induced vascular permeability increase; experiment: Inhibition of PAF-induced vascular permeability increase; assay type: in vivo, 6-week-old male ddY mice; settings: Mus musculus, ip; mice; intraperitoneally, 5 minutes before Evan's blue; PAF 50 ng intradermally; read-out: ED50 (effective dose required to inhibit PAF-induced vascular permeability increase by 50%)
Method: PAF (50 ng) was injected intradermally to the depilated back of 6-week-old male ddY mice. Evan's blue (1 mg) was injected intravenously 5 minutes before the PAF injection, and the test compound was administered intraperitoneally 5 minutes before the Evan's blue injection. Thirty minutes later, the animals were killed and the area of dye leakage was measured.
The inhibition was expressed as ED50 value, i.e. effective dose (mg/kg) required to inhibit PAF-induced vascular permeability increase by 50%.

[2] = tested on: platelet aggregation induced with PAF; experiment: Test 1 (Inhibition of platelet aggregation); assay type: cell-based, male Japanese white rabbit; settings: Oryctolagus cuniculus; rabbit platelet rich plasma; final concentration of PAF usually 32 nM; read-out: IC50 (concentration required to inhibit the platelet aggregation response by 50%)
Method: Blood was collected through the polyethylene catheter introduced into the carotid artery of male Japanese white rabbit (2.5 to 3 kg body weight). The blood was anticoagulated with 1 volume of 3.8% sodium citrate to 9 volume of blood. Platelet rich plasma (PRP) was prepared by centrifugation of the blood at 150 g for 10 minutes at room temperature. The PRP was diluted with platelet poor plasma obtained by further centrifugation of the blood at 1,000 g for 20 minutes. The platelet number was 5×10^5 cells/mm^3. Platelet aggregation induced with PAF [1-O-hexadecyl-2-O-acetyl-sn-glycero-3-phosphorylcholine] was measured by the nephelometric technique of Born and Cross [cf. Journal of Physiology 168, 178-188 (1963)] using HKK Hema tracer (trade name, made by Niko Bioscience Inc.).
Activity of inhibitor was expressed as IC50 value, i.e. concentration required to inhibit the platelet aggregation response by 50%. The final concentration of PAF was usually 32 nM.

[3] = tested on: endotoxin-induced disseminated intravascular coagulation (serum FDP); experiment: Effect of the test compound on the endotoxin-induced disseminated intravascular coagulation; assay type: in vivo, male Wister rats; settings: Rattus norvegicus, rats
Method: Conscious male Wister rats, 150-200 g body weight, 7 weeks old, were used in the experiment on endotoxin-induced disseminated intravascular coagulation (DIC). The animals were fasted before the experiment. A 10 mg/kg dose of endotoxin (E. coli) dissolved in saline was given as an injection via tail vein. Test compound was given orally 60 minutes before and 6 hours after endotoxin. The intravenous administration of the test compound into a tail vein was simultaneous with intravenous injection of endotoxin.
Arterial blood samples were taken 4 hours (Test compound; intravenously) and 24 hours (Test compound; orally) after endotoxin for measurements of serum FDP (fibrin degradation products), respectively. FDP was determined by the latex aggregation test.

[4] = tested on: PAF-induced lethality; experiment: Effect of the test compound on the PAF-induced lethality in rats; assay type: in vivo, male Wistar rats; settings: Rattus norvegicus, survival for 24 hours
Method: Conscious male Wistar rats, 150-200 g body weight, 7 weeks old, were used in the experiment on PAF-induced lethality. The animals were fasted before the experiment. Test compound was given orally 60 minutes before (or intravenously simultaneously with) intravenous PAF injection (10 μg/kg) into a tail vein. Survival of the animals was recorded for 24 hours after intravenous PAF injection.

[5] = tested on: PAF-induced bronchoconstriction; experiment: Effect of the test compound on PAF-induced bronchoconstriction in the guinea-pig; assay type: in vivo, Male Hartley guinea-pigs; settings: Cavia porcellus, po, orally 30 minutes before PAF (0.64 μg/ml, 1 ml/kg), read-out: ED50 (effective dose of the test compound to inhibit the PAF-induced bronchoconstriction by 50%)
Method: Male Hartley guinea-pigs (400-500 g) were anesthetized with sodium pentobarbital (25 mg/kg, intraperitoneally). The right jugular vein was catheterized for injection of PAF (0.64 μg/ml, 1 ml/kg), and the animals were tracheotomized and ventilated with a respiratory pump (Harvard B-34, 5 ml/stroke, 60 strocks/minutes).
The test compound was administered orally 30 minutes before challenge with PAF.
(ED50 : effective dose of the test compound to inhibit the PAF-induced bronchoconstriction by 50%).

`O=C1CC2(CCCCC2Cc2cccc(Cl)c2)S(=O)(=O)CCN1Cc1cccnc1` (stereo not shown) [1-(3-Chlorophenylmethyl)-10-(3-pyridylmethyl)-11-oxo-7-thia-10-azaspiro[5.6]dodecane 7,7-dioxide] showed an ED50 [1] of 2.9 mg/kg.
`CN(C)CCN1C(=O)CC2(CCCCC2Cc2ccccc2Cl)[S+]([O-])c2ccccc21` (stereo not shown) [2'-(2-Chlorophenylmethyl)-4,5-dihydro-4-oxo-5-{2-(N,N-dimethylamino)ethyl}spiro[1,5-benzothiazepine-2(3H), 1'-cyclohexane] 1-oxide] showed an IC50 [2] of 0.17 µg/mL (≈ 0.37 µM).
`O=C1C[C@]2(CCCC[C@H]2Cc2ccccc2)S(=O)(=O)CCN1Cc1cccnc1` [(1S,6S)-1-Phenylmethyl-10-(3-pyridylmethyl)-11-oxo-7-thia-10-azaspiro[5.6]dodecane 7,7-dioxide] showed an ED50 ([3]; intravenous, simultaneous with endotoxin 10 mg/kg, serum FDP at 4 hours, read-out: ED50 (mg/kg), endotoxin-induced DIC, intravenous) of 2.4 mg/kg, an ED50 ([3]; oral, 60 minutes before and 6 hours after endotoxin 10 mg/kg, serum FDP at 24 hours, read-out: ED50 (mg/kg), endotoxin-induced DIC, oral) of 6.8 mg/kg and an ED50 ([4]; intravenous, simultaneously with PAF 10 μg/kg i.v., read-out: ED50 (mg/kg), PAF-induced lethality, intravenous) of 1 mg/kg. For the same compound, the ED50 ([4]; oral, 60 minutes before PAF 10 μg/kg i.v., read-out: ED50 (mg/kg), PAF-induced lethality, oral) was 2 mg/kg and the ED50 [5] was 3.7 mg/kg.
